# Data: article PMC12557437, “Research towards selective inhibition of the CLK3 kinase” (Beilstein Journal of Organic Chemistry, 2025)
# Several values for one entry are separate records, joined by “and”; a condition that tells them apart may be missing. Identical values can stand only once.
# Tests used:
# Mm_CLK1 [1] = molecular target: T1, Mm_CLK1 (Mus musculus, UniProt P22518); experiment: radiometric γ33P-ATP kinase assay (Eurofins); assay type: biochemical; conditions: for IC50: 15 µM ATP, dose-response, points in duplicate; for Mm_CLK3/Mm_CLK1: ratio of IC50 values
# T1 sequence (P22518 whole entry): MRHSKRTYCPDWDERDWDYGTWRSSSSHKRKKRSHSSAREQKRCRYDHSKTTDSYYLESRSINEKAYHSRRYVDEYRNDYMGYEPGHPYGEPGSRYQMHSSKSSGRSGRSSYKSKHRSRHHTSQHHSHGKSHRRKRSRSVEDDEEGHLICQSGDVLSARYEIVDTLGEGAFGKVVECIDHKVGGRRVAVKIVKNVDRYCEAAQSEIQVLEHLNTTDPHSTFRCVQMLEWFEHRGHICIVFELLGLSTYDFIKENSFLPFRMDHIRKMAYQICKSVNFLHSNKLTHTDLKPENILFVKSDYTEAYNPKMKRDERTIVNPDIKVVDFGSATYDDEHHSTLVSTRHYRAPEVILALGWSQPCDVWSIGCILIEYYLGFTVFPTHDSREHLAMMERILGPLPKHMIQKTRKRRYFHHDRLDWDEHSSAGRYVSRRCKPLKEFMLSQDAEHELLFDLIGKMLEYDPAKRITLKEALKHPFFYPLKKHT
# Protocol: (§1) The results are reported in Table 2 and in Supporting Information File 1.
# (§2) 2- Kinase inhibition studies
# (§3) Kinase enzymatic activities were assayed using both luminescent ADP detection assay
# (§4) (ADP-GloTM assay kit, Promega, Madison, WI) or radiometric kinase assay. These
# (§5) assays were performed using the protocols described in our previous publication. […]
# (§6) 1.Brahmaiah, D.; Kanaka Durga Bhavani, A.; Aparna, P.; Sampath Kumar, N.; Solhi,
# (§7) H.; Le Guevel, R.; Baratte, B.; Ruchaud, S.; Bach, S.; Singh Jadav, S.; Raji Reddy, C.;
# (§8) Roisnel, T.; Mosset, P.; Levoin, N.; Grée, R. Bioorg.
# (§9) R.; Baratte, B.; Robert, T.; Ruchaud, S.; Bach, S.; Jadav, S. S.; Reddy, C. […]
# Mm_CLK4 = Mm_CLK4 (Mus musculus, UniProt O35493); experiment: radiometric γ33P-ATP kinase assay (Eurofins); assay type: biochemical; conditions: for IC50: 15 µM ATP, dose-response, points in duplicate; for Mm_CLK3/Mm_CLK4: ratio of IC50 values
# Mm_CLK4, sequence (O35493 whole entry): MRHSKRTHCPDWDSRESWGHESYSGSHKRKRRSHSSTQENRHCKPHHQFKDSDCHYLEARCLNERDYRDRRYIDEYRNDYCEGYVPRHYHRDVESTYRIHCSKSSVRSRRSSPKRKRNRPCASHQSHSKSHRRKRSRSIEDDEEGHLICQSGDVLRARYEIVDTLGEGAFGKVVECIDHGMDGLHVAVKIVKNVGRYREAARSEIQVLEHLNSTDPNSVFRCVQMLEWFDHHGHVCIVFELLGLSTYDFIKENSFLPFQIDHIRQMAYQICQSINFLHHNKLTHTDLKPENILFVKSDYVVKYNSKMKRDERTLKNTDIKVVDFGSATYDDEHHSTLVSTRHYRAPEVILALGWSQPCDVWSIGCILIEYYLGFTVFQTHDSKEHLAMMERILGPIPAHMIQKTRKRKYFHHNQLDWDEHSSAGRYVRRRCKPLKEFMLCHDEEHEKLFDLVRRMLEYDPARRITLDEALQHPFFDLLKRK
# Protocol: as §1, §2, §3, §4, §5, §6, §7, §8, §9
# Mm_CLK2 = Mm_CLK2 (Mus musculus, UniProt O35491); experiment: radiometric γ33P-ATP kinase assay (Eurofins); assay type: biochemical; conditions: for IC50: 15 µM ATP, dose-response, points in duplicate; for Mm_CLK3/Mm_CLK2: ratio of IC50 values
# Mm_CLK2, sequence (O35491 whole entry): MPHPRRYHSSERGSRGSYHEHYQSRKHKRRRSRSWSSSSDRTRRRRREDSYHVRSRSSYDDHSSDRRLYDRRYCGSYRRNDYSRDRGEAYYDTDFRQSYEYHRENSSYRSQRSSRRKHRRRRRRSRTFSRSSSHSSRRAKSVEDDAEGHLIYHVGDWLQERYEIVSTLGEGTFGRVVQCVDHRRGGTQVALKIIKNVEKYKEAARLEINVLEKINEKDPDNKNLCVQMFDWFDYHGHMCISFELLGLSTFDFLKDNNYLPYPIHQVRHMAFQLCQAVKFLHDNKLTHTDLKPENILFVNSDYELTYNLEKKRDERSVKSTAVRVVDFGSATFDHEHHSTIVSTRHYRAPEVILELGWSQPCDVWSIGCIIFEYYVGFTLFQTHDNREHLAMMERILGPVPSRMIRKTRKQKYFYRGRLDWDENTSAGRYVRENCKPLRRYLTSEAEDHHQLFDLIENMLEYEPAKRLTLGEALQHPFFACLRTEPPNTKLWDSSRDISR
# Protocol: as §1, §2, §3, §4, §5, §6, §7, §8, §9
# Mm_CLK3 = Mm_CLK3 (Mus musculus, UniProt O35492); experiment: radiometric γ33P-ATP kinase assay (Eurofins); assay type: biochemical; conditions: 15 µM ATP; dose-response, points in duplicate
# Mm_CLK3, sequence (O35492 whole entry): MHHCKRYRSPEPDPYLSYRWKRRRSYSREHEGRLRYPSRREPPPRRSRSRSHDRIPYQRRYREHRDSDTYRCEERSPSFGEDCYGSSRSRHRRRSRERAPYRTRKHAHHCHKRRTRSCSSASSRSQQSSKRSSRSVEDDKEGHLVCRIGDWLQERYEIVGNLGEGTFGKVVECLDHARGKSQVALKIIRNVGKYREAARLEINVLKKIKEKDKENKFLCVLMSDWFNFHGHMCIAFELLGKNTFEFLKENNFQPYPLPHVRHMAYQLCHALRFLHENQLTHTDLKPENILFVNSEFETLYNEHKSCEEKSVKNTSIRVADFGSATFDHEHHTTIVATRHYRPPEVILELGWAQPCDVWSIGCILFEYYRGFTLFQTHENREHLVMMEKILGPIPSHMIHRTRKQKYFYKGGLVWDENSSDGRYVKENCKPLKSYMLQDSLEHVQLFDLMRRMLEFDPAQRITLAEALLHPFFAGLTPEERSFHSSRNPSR
# Protocol: as §1, §2, §3, §4, §5, §6, §7, §8
# R.; Baratte, B.; Robert, T.; Ruchaud, S.; Bach, S.; Jadav, S. S.; Reddy, C. R.; Mosset,
# P.; Gouault, N.; Levoin, N.; Grée, R. Molecules 2022, 27, 6149. […]
# Mm_CLK1 [2] = molecular target: T1, Mm_CLK1; experiment: primary screening, short panel of mammalian kinases; assay type: biochemical; conditions: for activity against CLK1 in primary screening: 1 and 10 µM; for remaining activity at 1 µM: compound 1 μM; for remaining activity at 1 µM / remaining activity at 10 µM: ATP 10 µM, means, n = 2, read-out: Residual kinase activity Mm_CLK1; for remaining activity at 10 µM: compound 10 μM
# Text: (§10) Our molecules have been submitted first to a primary screening against a panel of eight disease-related kinases: five members of the CMGC (for CDK, MAPK, GSK3, and CLK) group (CDK5/p25, CDK9/CyclinT, GSK3β, CLK1 and DYRK1A), one CAMK (calmodulin/calcium regulated kinase PIM1), one CK1 (the casein kinase CK1ε), and haspin as a […] kinase.
# (§11) Figure 4 Primary evaluation of the inhibition of the new quinazolines against a short panel of mammalian kinases. Residual kinase activities are expressed in % of maximal activity, i.e., measured in the absence of inhibitor but with an equivalent dose of DMSO (solvent of the tested compounds). ATP concentration used in the kinase assays was 10 µM (values are means, n = 2). Kinases are from human origin (Homo sapiens) except CLK1 (from Mus musculus) and DYRK1A (from Rattus norvegicus). […]
# Hs_CDK9/CyclinT = Hs_CDK9/CyclinT (Homo sapiens, UniProt P50750); experiment: as above; assay type: biochemical; conditions: ATP 10 µM, means, n = 2, read-out: Residual kinase activity Hs_CDK9/CyclinT; for remaining activity at 1 µM: compound 1 μM; for remaining activity at 10 µM: compound 10 μM
# Hs_CDK9/CyclinT, sequence (P50750 whole entry): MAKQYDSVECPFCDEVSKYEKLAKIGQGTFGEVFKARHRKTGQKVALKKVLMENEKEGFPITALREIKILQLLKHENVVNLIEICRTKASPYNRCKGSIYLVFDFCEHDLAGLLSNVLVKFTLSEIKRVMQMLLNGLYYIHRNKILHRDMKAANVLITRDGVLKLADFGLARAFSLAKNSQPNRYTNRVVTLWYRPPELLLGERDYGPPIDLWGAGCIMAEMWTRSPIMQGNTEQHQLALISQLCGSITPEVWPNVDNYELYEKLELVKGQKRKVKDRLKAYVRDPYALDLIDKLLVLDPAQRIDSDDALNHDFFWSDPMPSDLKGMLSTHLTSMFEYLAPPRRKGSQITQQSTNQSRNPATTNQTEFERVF
# Hs_CDK9/CyclinT, sequence (O60563 whole entry partner): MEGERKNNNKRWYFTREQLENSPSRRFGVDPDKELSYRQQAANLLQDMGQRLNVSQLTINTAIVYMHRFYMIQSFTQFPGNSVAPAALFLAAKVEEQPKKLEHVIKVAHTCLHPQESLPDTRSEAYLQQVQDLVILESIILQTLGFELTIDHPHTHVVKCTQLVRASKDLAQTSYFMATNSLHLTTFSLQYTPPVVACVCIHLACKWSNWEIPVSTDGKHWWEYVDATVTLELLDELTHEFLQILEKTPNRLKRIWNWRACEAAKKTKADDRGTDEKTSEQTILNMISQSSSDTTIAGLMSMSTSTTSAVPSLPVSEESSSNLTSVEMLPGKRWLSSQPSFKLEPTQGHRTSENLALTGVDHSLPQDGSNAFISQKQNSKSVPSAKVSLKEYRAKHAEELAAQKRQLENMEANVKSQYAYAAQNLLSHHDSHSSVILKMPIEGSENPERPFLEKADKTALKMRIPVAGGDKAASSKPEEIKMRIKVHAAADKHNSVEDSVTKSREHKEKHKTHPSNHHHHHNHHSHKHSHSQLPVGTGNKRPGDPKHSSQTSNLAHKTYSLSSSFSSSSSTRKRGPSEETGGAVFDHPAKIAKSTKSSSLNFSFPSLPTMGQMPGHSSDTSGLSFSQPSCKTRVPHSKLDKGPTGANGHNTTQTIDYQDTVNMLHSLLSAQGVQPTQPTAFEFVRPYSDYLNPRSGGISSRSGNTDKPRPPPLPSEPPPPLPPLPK
# Text: as §10, §11
# Hs_PIM1 = Hs_PIM1 (Homo sapiens, UniProt P11309); experiment: as above; assay type: biochemical; conditions: ATP 10 µM, means, n = 2, read-out: Residual kinase activity Hs_PIM1; for remaining activity at 1 µM: compound 1 μM; for remaining activity at 10 µM: compound 10 μM
# Hs_PIM1, sequence (P11309 whole entry): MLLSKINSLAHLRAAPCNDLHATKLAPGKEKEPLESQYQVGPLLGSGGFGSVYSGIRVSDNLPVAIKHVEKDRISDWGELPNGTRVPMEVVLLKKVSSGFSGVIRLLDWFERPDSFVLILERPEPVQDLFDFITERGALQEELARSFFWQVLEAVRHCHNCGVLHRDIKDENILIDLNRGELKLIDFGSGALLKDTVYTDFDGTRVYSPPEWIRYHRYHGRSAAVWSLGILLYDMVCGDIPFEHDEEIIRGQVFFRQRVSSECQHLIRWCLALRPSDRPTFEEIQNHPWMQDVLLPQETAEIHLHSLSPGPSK
# Text: as §10, §11
# Hs_CDK5/p25 = Hs_CDK5/p25 (Homo sapiens, UniProt Q00535); experiment: as above; assay type: biochemical; conditions: ATP 10 µM, means, n = 2, read-out: Residual kinase activity Hs_CDK5/p25; for remaining activity at 1 µM: compound 1 μM; for remaining activity at 10 µM: compound 10 μM
# Hs_CDK5/p25, sequence (Q00535 whole entry): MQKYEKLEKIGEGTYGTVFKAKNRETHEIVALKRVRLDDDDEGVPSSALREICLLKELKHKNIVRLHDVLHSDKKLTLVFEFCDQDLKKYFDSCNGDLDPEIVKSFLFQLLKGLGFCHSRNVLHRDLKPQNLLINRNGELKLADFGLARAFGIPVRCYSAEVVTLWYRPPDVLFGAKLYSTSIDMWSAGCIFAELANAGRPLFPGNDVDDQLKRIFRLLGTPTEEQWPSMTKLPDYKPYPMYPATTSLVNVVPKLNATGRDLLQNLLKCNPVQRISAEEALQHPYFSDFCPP
# Hs_CDK5/p25, sequence (Q15078 99-307 partner limits assumed): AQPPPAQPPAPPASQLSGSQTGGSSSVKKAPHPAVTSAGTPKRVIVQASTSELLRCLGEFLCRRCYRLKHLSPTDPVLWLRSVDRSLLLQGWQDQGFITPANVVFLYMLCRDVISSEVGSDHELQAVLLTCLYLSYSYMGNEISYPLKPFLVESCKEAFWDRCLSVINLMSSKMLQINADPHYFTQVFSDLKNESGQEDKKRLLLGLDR
# Text: as §10, §11
# Hs_HASPIN = molecular target: T2, Hs_HASPIN (Homo sapiens, UniProt Q8TF76); experiment: as above; assay type: biochemical; conditions: ATP 10 µM, means, n = 2, read-out: Residual kinase activity Hs_HASPIN; for remaining activity at 1 µM: compound 1 μM; for remaining activity at 10 µM: compound 10 μM
# T2 sequence (Q8TF76 1-798): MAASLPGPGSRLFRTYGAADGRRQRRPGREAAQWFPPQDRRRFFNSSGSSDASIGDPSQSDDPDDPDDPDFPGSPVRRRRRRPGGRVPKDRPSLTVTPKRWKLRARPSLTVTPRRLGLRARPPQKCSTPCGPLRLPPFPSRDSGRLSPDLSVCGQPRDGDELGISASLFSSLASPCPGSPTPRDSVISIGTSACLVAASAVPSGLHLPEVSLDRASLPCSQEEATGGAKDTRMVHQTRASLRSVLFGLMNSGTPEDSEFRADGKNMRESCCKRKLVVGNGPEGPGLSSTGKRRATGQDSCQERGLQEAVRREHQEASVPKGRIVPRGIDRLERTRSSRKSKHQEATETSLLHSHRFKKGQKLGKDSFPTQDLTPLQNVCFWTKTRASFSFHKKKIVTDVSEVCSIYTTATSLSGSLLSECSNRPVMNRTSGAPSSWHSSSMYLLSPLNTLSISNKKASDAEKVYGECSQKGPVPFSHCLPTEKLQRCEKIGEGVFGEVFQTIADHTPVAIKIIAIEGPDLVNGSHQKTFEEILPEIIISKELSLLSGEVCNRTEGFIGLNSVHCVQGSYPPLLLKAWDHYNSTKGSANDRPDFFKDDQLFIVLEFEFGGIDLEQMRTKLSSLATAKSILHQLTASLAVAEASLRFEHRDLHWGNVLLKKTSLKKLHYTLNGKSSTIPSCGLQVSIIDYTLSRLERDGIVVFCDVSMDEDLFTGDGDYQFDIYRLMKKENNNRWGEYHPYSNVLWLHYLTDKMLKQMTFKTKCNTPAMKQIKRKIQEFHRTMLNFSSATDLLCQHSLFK
# Text: as §10, §11
# Rn_DYRK1A = Rn_DYRK1A (Rattus norvegicus, UniProt Q63470); experiment: as above; assay type: biochemical; conditions: ATP 10 µM, means, n = 2, read-out: Residual kinase activity Rn_DYRK1A; for remaining activity at 1 µM: compound 1 μM; for remaining activity at 10 µM: compound 10 μM
# Text: as §10, §11
# Hs_CK1ε = Hs_CK1ε (Homo sapiens, UniProt P49674); experiment: as above; assay type: biochemical; conditions: ATP 10 µM, means, n = 2, read-out: Residual kinase activity Hs_CK1ε; for remaining activity at 1 µM: compound 1 μM; for remaining activity at 10 µM: compound 10 μM
# Hs_CK1ε, sequence (P49674 whole entry): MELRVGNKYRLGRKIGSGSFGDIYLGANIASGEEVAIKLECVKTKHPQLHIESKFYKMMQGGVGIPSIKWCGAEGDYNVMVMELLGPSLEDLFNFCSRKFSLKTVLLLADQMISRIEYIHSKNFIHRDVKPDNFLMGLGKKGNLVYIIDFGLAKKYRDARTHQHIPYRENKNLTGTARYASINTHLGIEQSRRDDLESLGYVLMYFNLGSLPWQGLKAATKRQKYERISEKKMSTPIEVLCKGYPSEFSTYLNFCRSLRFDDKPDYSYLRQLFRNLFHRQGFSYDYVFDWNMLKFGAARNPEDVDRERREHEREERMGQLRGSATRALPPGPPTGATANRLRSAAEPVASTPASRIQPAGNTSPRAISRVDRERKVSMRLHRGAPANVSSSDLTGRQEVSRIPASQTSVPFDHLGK
# Text: as §10, §11
# Hs_GSK3β = Hs_GSK3β (Homo sapiens, UniProt P49841); experiment: as above; assay type: biochemical; conditions: ATP 10 µM, means, n = 2, read-out: Residual kinase activity Hs_GSK3β; for remaining activity at 1 µM: compound 1 μM; for remaining activity at 10 µM: compound 10 μM
# Hs_GSK3β, sequence (P49841 whole entry): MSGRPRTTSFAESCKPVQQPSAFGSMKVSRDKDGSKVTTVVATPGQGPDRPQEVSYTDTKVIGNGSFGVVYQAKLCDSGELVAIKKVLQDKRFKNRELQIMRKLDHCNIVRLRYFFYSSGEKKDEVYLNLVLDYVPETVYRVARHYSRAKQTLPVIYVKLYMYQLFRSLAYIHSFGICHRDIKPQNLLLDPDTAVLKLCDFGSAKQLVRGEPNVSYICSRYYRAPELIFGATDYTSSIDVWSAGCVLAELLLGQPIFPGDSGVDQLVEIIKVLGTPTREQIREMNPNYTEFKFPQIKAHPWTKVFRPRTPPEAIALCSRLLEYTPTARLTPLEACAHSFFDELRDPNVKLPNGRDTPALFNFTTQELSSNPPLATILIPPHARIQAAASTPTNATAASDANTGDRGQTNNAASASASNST
# Text: as §10, §11
# DYRK1A = conditions: human protein kinase; ref 17 (SM08502), 19 (T3), 20-21 (CX-4945), 24 (DB18); cited from earlier work
# CLK1 = conditions: human protein kinase; ref 17 (SM08502), 19 (T3), 20-21 (CX-4945), 24 (DB18); cited from earlier work
# CLK4 = conditions: human protein kinase; ref 17 (SM08502), 20-21 (CX-4945), 24 (DB18); cited from earlier work
# CLK3 = conditions: human protein kinase; ref 17 (SM08502), 19 (T3), 20-21 (CX-4945), 24 (DB18); cited from earlier work
# CLK2 = conditions: human protein kinase; ref 17 (SM08502), 19 (T3), 20-21 (CX-4945), 24 (DB18); cited from earlier work
IC50 (Mm_CLK1 [1]) [µM],Mm_CLK3/Mm_CLK1 (Mm_CLK1 [1]),IC50 (Mm_CLK4) [µM],Mm_CLK3/Mm_CLK4 (Mm_CLK4),remaining activity at 1 µM (Mm_CLK1 [2]) [%],remaining activity at 10 µM (Mm_CLK1 [2]) [%],remaining activity at 1 µM (Hs_CDK9/CyclinT) [%],remaining activity at 10 µM (Hs_CDK9/CyclinT) [%],remaining activity at 1 µM (Hs_PIM1) [%],remaining activity at 10 µM (Hs_PIM1) [%],remaining activity at 1 µM (Hs_CDK5/p25) [%],remaining activity at 10 µM (Hs_CDK5/p25) [%],remaining activity at 1 µM (Hs_HASPIN) [%],remaining activity at 10 µM (Hs_HASPIN) [%],remaining activity at 1 µM (Rn_DYRK1A) [%],remaining activity at 10 µM (Rn_DYRK1A) [%],remaining activity at 1 µM (Hs_CK1ε) [%],remaining activity at 10 µM (Hs_CK1ε) [%],remaining activity at 1 µM (Hs_GSK3β) [%],remaining activity at 10 µM (Hs_GSK3β) [%],Compound,also measured
0.891,4.18,0.762,4.90,15,0,84,38,80,≥ 100,61,70,93,92,≥ 100,84,93,84,82,32,Cc1ccc(-n2cc(COc3cccc4cnc(Nc5cccc(-c6ccc(C(=O)O)cc6)c5)nc34)nn2)c([N+](=O)[O-])c1 [Compound 10a],IC50 (Mm_CLK2): 0.844 µM; Mm_CLK3/Mm_CLK2 (Mm_CLK2): 4.42; IC50 (Mm_CLK3): 3.7 µM and 3.73 µM; activity against CLK1 in primary screening (Mm_CLK1 [2]): significant activity against CLK1
0.213,4.04,0.145,5.94,38,8,99,66,84,≥ 100,53,43,85,92,82,94,≥ 100,92,92,56,Cc1ccc(-n2cc(COc3cccc4cnc(Nc5cc(Cl)cc(-c6ccc(C(=O)O)cc6)c5)nc34)nn2)c([N+](=O)[O-])c1 [Compound 10b],IC50 (Mm_CLK2): 0.118 µM; Mm_CLK3/Mm_CLK2 (Mm_CLK2): 7.29; IC50 (Mm_CLK3): 0.861 µM; activity against CLK1 in primary screening (Mm_CLK1 [2]): significant activity against CLK1
–,–,–,–,60,66,96,91,≥ 100,96,74,≥ 100,65,43,≥ 100,≥ 100,≥ 100,≥ 100,90,86,COC(=O)c1ccc(-c2cc(Cl)cc(Nc3ncc4cccc(OCc5cn(-c6ccc(C)cc6[N+](=O)[O-])nn5)c4n3)c2)cc1 [Compound 9b],–
–,–,–,–,66,58,98,95,≥ 100,90,70,84,95,≥ 100,≥ 100,≥ 100,78,95,70,53,COC(=O)c1ccc(-c2cccc(Nc3ncc4cccc(OCc5cn(-c6ccc(C)cc6[N+](=O)[O-])nn5)c4n3)c2)cc1 [Compound 9a],–
–,–,–,–,–,–,–,–,–,–,–,–,–,–,–,–,–,–,–,–,O=C(O)c1ccc2c(c1)nc(Nc1cccc(Cl)c1)c1ccncc12 [CX-4945],IC50 (DYRK1A): […]; IC50 (CLK1): 0.0033 µM; IC50 (CLK4): 0.023 µM; IC50 (CLK3): 0.067 µM; IC50 (CLK2): 0.0029 µM
–,–,–,–,54,48,94,83,90,98,85,92,47,39,≥ 100,≥ 100,≥ 100,≥ 100,97,62,COC(=O)c1cccc(-c2cc(Cl)cc(Nc3ncc4cccc(OCc5cn(-c6ccc(C)cc6[N+](=O)[O-])nn5)c4n3)c2)c1 [Compound 12b],–
0.68,2.43,0.428,3.87,44,5,83,24,68,≥ 100,62,9,79,63,92,60,≥ 100,≥ 100,95,26,Cc1ccc(-n2cc(COc3cccc4cnc(Nc5cccc(-c6cccc(C(=O)O)c6)c5)nc34)nn2)c([N+](=O)[O-])c1 [Compound 13a],IC50 (Mm_CLK2): 0.278 µM; Mm_CLK3/Mm_CLK2 (Mm_CLK2): 5.95; IC50 (Mm_CLK3): 1.66 µM; activity against CLK1 in primary screening (Mm_CLK1 [2]): significant activity against CLK1
